Measured values published in the supplement of paper PMC10307832.

How the values were obtained:
Test in all cases: relative viability (nuclei count vs DMSO), 5 days (fraction); higher = more cells survive
Dactolisib + Alpelisib = compound: Cn1c(=O)n(-c2ccc(C(C)(C)C#N)cc2)c2c3cc(-c4cnc5ccccc5c4)ccc3ncc21 [Dactolisib] + Cc1nc(NC(=O)N2CCC[C@H]2C(N)=O)sc1-c1ccnc(C(C)(C)C(F)(F)F)c1 [Alpelisib] (partner 2 µM)
How it was run: (§1)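 Lung cancer cell lines in 1536-well plates got either a single drug or a fixed anchor-drug dose together with five library-drug doses (not always all listed) in √10 steps, by pin tool, on the day after seeding. Nuclei were counted after 5 days, and relative viability is the treated-to-vehicle ratio of nuclei counts. Values are medians of duplicate plates.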

AZ505 + Phenformin = compound: C1CCC(CC1)N(CCNCCC2=C3C(=C(C=C2)O)NC(=O)CO3)C(=O)CCNCCC4=CC(=C(C=C4)Cl)Cl [AZ505] + N=C(N)NC(=N)NCCc1ccccc1 [Phenformin] (partner 250 µM)
How it was run: as §1

AZ505 + Navitoclax = compound: C1CCC(CC1)N(CCNCCC2=C3C(=C(C=C2)O)NC(=O)CO3)C(=O)CCNCCC4=CC(=C(C=C4)Cl)Cl [AZ505] + CC1(C)CCC(c2ccc(Cl)cc2)=C(CN2CCN(c3ccc(C(=O)NS(=O)(=O)c4ccc(N[C@H](CCN5CCOCC5)CSc5ccccc5)c(S(=O)(=O)C(F)(F)F)c4)cc3)CC2)C1 [Navitoclax] (partner 0.5 µM)
How it was run: as §1

Dactolisib + Luminespib = compound: Cn1c(=O)n(-c2ccc(C(C)(C)C#N)cc2)c2c3cc(-c4cnc5ccccc5c4)ccc3ncc21 [Dactolisib] + CCNC(=O)c1noc(-c2cc(C(C)C)c(O)cc2O)c1-c1ccc(CN2CCOCC2)cc1 [Luminespib] (partner 0.01 µM)
How it was run: as §1

Cell Line | relative viability (Dactolisib + Alpelisib; first compound 0.002 µM) | relative viability (Dactolisib + Alpelisib; first compound 0.006325 µM) | relative viability (Dactolisib + Alpelisib; first compound 0.02 µM) | relative viability (Dactolisib + Alpelisib; first compound 0.06325 µM) | relative viability (Dactolisib + Alpelisib; first compound 0.2 µM) | relative viability (AZ505 + Phenformin; first compound 0.08 µM) | relative viability (AZ505 + Phenformin; first compound 0.253 µM) | relative viability (AZ505 + Phenformin; first compound 0.8 µM) | relative viability (AZ505 + Phenformin; first compound 2.53 µM) | relative viability (AZ505 + Phenformin; first compound 8 µM) | relative viability (AZ505 + Navitoclax; first compound 0.253 µM) | relative viability (AZ505 + Navitoclax; first compound 0.8 µM) | relative viability (AZ505 + Navitoclax; first compound 2.53 µM) | relative viability (AZ505 + Navitoclax; first compound 8 µM) | relative viability (AZ505 + Navitoclax; first compound 0.08 µM) | relative viability (Dactolisib + Luminespib; first compound 0.002 µM) | relative viability (Dactolisib + Luminespib; first compound 0.006325 µM) | relative viability (Dactolisib + Luminespib; first compound 0.02 µM) | relative viability (Dactolisib + Luminespib; first compound 0.06325 µM) | relative viability (Dactolisib + Luminespib; first compound 0.2 µM)
HCC-78 | 0.358 | 0.33 | 0.282 | 0.247 | 0.198 | 0.531 | 0.611 | 0.707 | 0.731 | 0.728 | 0.852 | 0.832 | 0.919 | 0.818 | – | – | – | – | – | –
HCC-366 | 0.329 | 0.369 | 0.401 | 0.175 | 0.134 | 0.577 | 0.632 | 0.572 | 0.56 | 0.582 | 0.948 | 1.02 | 1.12 | 1.06 | 1.03 | – | – | – | – | –
HCC-827 | 0.964 | 1.01 | 0.943 | 0.468 | 0.359 | 0.401 | 0.427 | 0.453 | 0.44 | 0.425 | 0.966 | 0.967 | 0.963 | 0.98 | 1.03 | 0.532 | 0.626 | 0.538 | 0.401 | 0.144
HOP-62 | 1.19 | 1.09 | 0.876 | 0.468 | 0.323 | 0.63 | 0.797 | 0.67 | 0.725 | 0.784 | 1.1 | 0.972 | 1.03 | 0.992 | 0.946 | 0.983 | 0.812 | 0.888 | 0.543 | 0.561
IA-LM | 0.636 | 0.663 | 0.793 | 0.179 | 0.186 | – | – | – | – | – | 0.943 | 0.703 | 0.779 | 0.872 | 0.622 | – | – | – | – | –
LC-2-ad | 0.916 | – | 0.817 | 0.64 | 0.533 | 0.561 | 0.538 | 0.572 | 0.64 | 0.579 | 0.594 | 0.528 | 0.491 | 0.54 | 0.285 | 1.14 | 0.923 | 0.922 | 0.551 | 0.524
LCLC-97TM1 | 0.304 | 0.218 | 0.186 | 0.134 | 0.151 | 0.386 | 0.445 | 0.416 | 0.428 | 0.462 | 0.521 | 0.902 | 0.735 | 0.694 | 0.446 | 0.753 | 0.754 | 0.661 | 0.46 | 0.213
LCLC-103H | 1.01 | 0.943 | 0.95 | 0.673 | 0.539 | 0.321 | 0.292 | 0.318 | 0.381 | 0.378 | – | – | – | – | – | 1.03 | 0.905 | 0.844 | 0.483 | 0.444
LK-2 | 0.934 | 1.03 | 0.793 | 0.526 | 0.416 | 0.387 | 0.43 | 0.514 | 0.713 | 0.427 | 0.952 | 0.805 | 0.934 | 0.842 | 0.825 | 0.152 | 0.198 | 0.195 | 0.171 | 0.197
LOU-NH91 | 0.623 | 0.665 | 0.669 | 0.496 | 0.471 | 0.685 | 0.684 | 0.604 | 0.805 | 0.729 | 0.694 | 0.657 | 0.657 | 0.804 | 0.612 | 0.378 | 0.295 | 0.351 | 0.316 | 0.317
NCI-H358 | 0.951 | 0.786 | 0.718 | 0.3 | 0.18 | 0.356 | 0.346 | 0.351 | 0.24 | 0.364 | – | – | – | – | – | 0.399 | 0.289 | 0.273 | 0.203 | 0.111
NCI-H522 | – | – | – | – | – | 0.526 | 0.521 | 0.61 | 0.732 | 0.626 | – | – | – | – | – | 1.15 | 1.17 | 1.22 | 0.659 | 0.596
NCI-H650 | 1.19 | 0.964 | 1.01 | 0.46 | 0.507 | 0.443 | 0.389 | 0.468 | 0.509 | 0.457 | – | – | – | – | – | 0.779 | 0.778 | 0.787 | 0.443 | 0.369
NCI-H661 | 0.823 | 0.6 | 0.62 | 0.484 | 0.225 | 0.285 | 0.261 | 0.288 | 0.328 | 0.296 | – | – | – | – | – | 0.929 | 0.99 | 0.866 | 0.391 | 0.496
NCI-H1299 | 1.07 | 1.08 | 1.1 | 0.829 | 0.905 | – | – | – | – | – | 0.991 | 0.974 | 1.02 | 1 | 1.02 | – | – | – | – | –
NCI-H1563 | 0.851 | 0.86 | 0.706 | 0.605 | 0.588 | 0.626 | 0.646 | 0.696 | 0.664 | 0.666 | – | – | – | – | – | 0.535 | 0.532 | 0.511 | 0.47 | 0.507
NCI-H1623 | – | – | – | – | – | 0.54 | 0.504 | 0.621 | 0.509 | 0.629 | – | – | – | – | – | 0.604 | 0.491 | 0.462 | 0.308 | 0.275
NCI-H1650 | – | – | – | – | – | 0.429 | 0.4 | 0.423 | 0.405 | 0.463 | 1.34 | 1.25 | 1.15 | 1.14 | 1.21 | 0.19 | 0.185 | 0.192 | 0.206 | 0.202
NCI-H1703 | 0.205 | 0.329 | 0.34 | 0.267 | 0.216 | – | – | – | – | – | 1.36 | 1.32 | 1.31 | 1.55 | 1.05 | – | – | – | – | –
NCI-H2342 | – | – | – | – | – | 0.573 | 0.559 | 0.733 | 0.697 | 0.677 | – | – | – | – | – | 0.677 | 0.634 | 0.653 | 0.495 | 0.437
SW 900 | – | – | – | – | – | 0.618 | 0.522 | 0.588 | 0.695 | 0.647 | – | – | – | – | – | 0.17 | 0.2 | 0.157 | 0.174 | 0.169
